Where two headings read alike, the source gives them in different places.
Tested on: SMN2-linked luciferase-reporter gene construct
Assay: SMN splice reporter assay (SMN2-linked luciferase reporter, Example 10)
Assay type: cell-based
Conditions: for maximal fold induction: read-out: SMN Splice Reporter Assay (Example 10) Avg MaxFold Increase
Excerpt: Cervical carcinoma cell lines were transformed with a SMN2-linked luciferase-reporter gene construct. The reporter is designed to detect shifts in the alternative splicing of SMN2 sequences. In particular, the reporter is constructed as a fusion of the alternatively spliced sequences of the SMN2 gene and the luciferase gene. Luciferase sequences are in the correct translational reading frame only when the SMN2 sequences are spliced according to the normal SMN1 mechanism (e.g., splicing to include exon 7), which allows for translation of the stable SMN protein. Compounds were tested in the assay by administering the compound to the cell line and detecting an increase in the luciferase activity. The assay is described in greater detail in Zhang et al., Gene Ther., 8, 1532-8 (2001). Compounds were administered as described in Lunn et al, Chem. & Biol, 11, 1489-1493 (2004).
The results are reported as a fold-increase over a baseline reading of transformed cells without any test compound.

[1] = SMN2-linked luciferase reporter, average
[2] = maximum fold increase of reporter signal, average

| EC50 [1] | Compound | maximal fold induction [2] | maximal fold induction (SMN2-linked luciferase reporter, average maximum fold increase) |
| --- | --- | --- | --- |
| 1.25 µM | CC(C(=O)O)c1ccc(N2Cc3ccccc3C2=O)c(Br)c1 (stereo not drawn) [ALB-112004] | 1.08 |  |
| 3.74 µM | CC(C(=O)OC(C)(C)C)c1ccc(N2Cc3cccc(N)c3C2=O)cc1 (stereo not drawn) [ALB-112061] | 1.27 |  |
| 0.329 µM | CC(C(=O)O)c1ccc(N2Cc3cccc(N)c3C2=O)cc1 (stereo not drawn) [ALB-112062a] | 1.41 |  |
| 0.909 µM | CC(C(=O)O)c1ccc(N2Cc3cc(-c4cccs4)ccc3C2=O)cc1 (stereo not drawn) [ALB-112063] | 1.2 |  |
|  | CC(C(=O)OC(C)(C)C)c1ccc(N2Cc3c(Br)cccc3C2=O)cc1 (stereo not drawn) [ALB-112064] | 1.04 |  |
| 1.34 µM | CC(C(=O)OC(C)(C)C)c1ccc(N2Cc3cccc(Br)c3C2=O)cc1 (stereo not drawn) [ALB-112065] | 1.22 |  |
| 21.8 µM | CC(C(=O)O)c1ccc(N2Cc3c(Br)cccc3C2=O)cc1 (stereo not drawn) [ALB-112066] | 1.12 |  |
| 9.71 µM | CC(C(=O)O)c1ccc(N2Cc3cccc(Br)c3C2=O)cc1 (stereo not drawn) [ALB-112067] | 1.36 |  |
|  | CC(C(=O)OC(C)(C)C)c1ccc(N2Cc3ccc(NS(=O)(=O)c4ccc(Cl)cc4)cc3C2=O)cc1 (stereo not drawn) [ALB-112070] | 1.11 |  |
|  | CC(C(=O)O)c1ccc(N2Cc3ccc(NS(C)(=O)=O)cc3C2=O)cc1 (stereo not drawn) [ALB-112071] | 1.07 |  |
|  | CC(C(=O)OC(C)(C)C)c1ccc(N2Cc3ccc(NS(=O)(=O)c4ccccc4)cc3C2=O)cc1 (stereo not drawn) [ALB-112072] |  | 1.07 |
|  | CCNC(=O)C(C)c1ccc(N2Cc3ccccc3C2=O)cc1 (stereo not drawn) [ALB-112073] | 1.18 |  |
| 0.578 µM | CC(C(=O)Nc1ccccc1)c1ccc(N2Cc3ccccc3C2=O)cc1 (stereo not drawn) [ALB-112075] | 1.25 |  |
| 1.37 µM | CC(C)NC(=O)C(C)c1ccc(N2Cc3ccccc3C2=O)cc1 (stereo not drawn) [ALB-112076] | 1.12 |  |
|  | CC(C(=O)N1CCOCC1)c1ccc(N2Cc3ccccc3C2=O)cc1 (stereo not drawn) [ALB-112077] | 1.09 |  |
|  | CC(C(=O)N1CCCCC1)c1ccc(N2Cc3ccccc3C2=O)cc1 (stereo not drawn) [ALB-112078] | 1.15 |  |
|  | CNC(=O)C(C)c1ccc(N2Cc3ccccc3C2=O)cc1 (stereo not drawn) [ALB-112079] | 1.14 |  |
|  | CC(C(=O)OC(C)(C)C)c1ccc(N2Cc3ccccc3C2=O)c(-c2ccc(Cl)c(Cl)c2)c1 (stereo not drawn) [ALB-112080] | 1.03 |  |
|  | Cc1ccc(-c2cc(C(C)C(=O)OC(C)(C)C)ccc2N2Cc3ccccc3C2=O)cc1 (stereo not drawn) [ALB-112081] | 1.03 |  |
|  | COc1ccc(-c2cc(C(C)C(=O)OC(C)(C)C)ccc2N2Cc3ccccc3C2=O)cc1 (stereo not drawn) [ALB-112082] | 1.12 |  |
|  | CCCc1cc(N2Cc3ccccc3C2=O)ccc1C(C)C(=O)O (stereo not drawn) [ALB-112083] | 1.09 |  |
|  | CC(C(=O)O)c1ccc(N2Cc3ccccc3C2=O)cc1-c1cccs1 (stereo not drawn) [ALB-112084] | 1.11 |  |
|  | Cc1ccc(-c2cc(C(C)C(=O)O)ccc2N2Cc3ccccc3C2=O)cc1 (stereo not drawn) [ALB-112085.] | 1.08 |  |
|  | COc1ccc(-c2cc(C(C)C(=O)O)ccc2N2Cc3ccccc3C2=O)cc1 (stereo not drawn) [ALB-112086] | 1.08 |  |

| EC50 [1] | Compound | maximal fold induction [2] | maximal fold induction (SMN2-linked luciferase reporter, average maximum fold increase) |
| --- | --- | --- | --- |
|  | CC(C(=O)OC(C)(C)C)c1ccc(N2Cc3ncccc3C2=O)cc1 (stereo not drawn) [ALB-112087] | 1.05 |  |
|  | CC(C(=O)OC(C)(C)C)c1ccc(N2Cc3cccc(-c4ccc(Cl)c(Cl)c4)c3C2=O)cc1 (stereo not drawn) [ALB-112149] | 1.06 |  |
|  | CC(C(=O)OC(C)(C)C)c1ccc(N2Cc3cccc(-c4ccccc4)c3C2=O)cc1 (stereo not drawn) [ALB-112150] | 1.1 |  |
|  | Cc1ccc(-c2cccc3c2C(=O)N(c2ccc(C(C)C(=O)OC(C)(C)C)cc2)C3)cc1 (stereo not drawn) [ALB-112151] | 1.11 |  |
|  | COc1ccc(-c2cccc3c2C(=O)N(c2ccc(C(C)C(=O)OC(C)(C)C)cc2)C3)cc1 (stereo not drawn) [ALB-112152] | 1.04 |  |
|  | CC(C(=O)OC(C)(C)C)c1ccc(N2Cc3cccc(-c4ccc(Cl)cc4)c3C2=O)cc1 (stereo not drawn) [ALB-112153] | 1.02 |  |
|  | CC(C(=O)OC(C)(C)C)c1ccc(N2Cc3cccc(-c4cccs4)c3C2=O)cc1 (stereo not drawn) [ALB-112154] | 1.11 |  |
| 26.3 µM | CC(C(=O)O)c1ccc(N2Cc3cccc(-c4ccccc4)c3C2=O)cc1 (stereo not drawn) [ALB-112155] | 1.19 |  |
|  | COc1ccc(-c2cccc3c2C(=O)N(c2ccc(C(C)C(=O)O)cc2)C3)cc1 (stereo not drawn) [ALB-112156] | 1.27 |  |
| 20.5 µM | CC(C(=O)O)c1ccc(N2Cc3cccc(-c4cccnc4)c3C2=O)cc1 (stereo not drawn) [ALB-112157] | 1.2 |  |
| 11.4 µM | CC(C(=O)O)c1ccc(N2Cc3cccc(-c4cccs4)c3C2=O)cc1 (stereo not drawn) [ALB-112158] | 1.24 |  |
|  | CC(C(=O)O)c1ccc(N2Cc3ccccc3C2=O)cc1-c1ccco1 (stereo not drawn) [ALB-112160] | 1.02 |  |
|  | CC(C(=O)O)c1ccc(N2Cc3ccccc3C2=O)c(-c2ccc(Cl)c(Cl)c2)c1 (stereo not drawn) [ALB-112161] | 1.1 |  |
|  | CC(C(=O)OC(C)(C)C)c1ccc(N2Cc3ccccc3C2=O)c(-c2ccc(Cl)cc2)c1 (stereo not drawn) [ALB-112162] | 1.03 |  |
|  | CC(C(=O)OC(C)(C)C)c1ccc(N2Cc3ccccc3C2=O)c(-c2ccccc2)c1 (stereo not drawn) [ALB-112163] | 1.03 |  |
|  | CC(C(=O)O)c1ccc(N2Cc3ccccc3C2=O)c(-c2ccc(Cl)cc2)c1 (stereo not drawn) [ALB-112164] | 1.05 |  |
|  | CC(C(=O)O)c1ccc(N2Cc3ccccc3C2=O)c(-c2ccccc2)c1 (stereo not drawn) [ALB-112165] | 1.15 |  |
|  | CC(C(=O)OC(C)(C)C)c1ccc(N2Cc3ccc(Nc4ccc(Cl)cc4)cc3C2=O)cc1 (stereo not drawn) [ALB-112166] | 1.04 |  |
|  | CC(C(=O)OC(C)(C)C)c1ccc(N2Cc3ccc(N(C)C(=O)c4ccc(Cl)cc4)cc3C2=O)cc1 (stereo not drawn) [ALB-112167] | 1.01 |  |
|  | CC(C(=O)OC(C)(C)C)c1ccc(N2Cc3ccc(Nc4ccccc4)cc3C2=O)cc1 (stereo not drawn) [ALB-112168] | 1.15 |  |
|  | CC(C(=O)OC(C)(C)C)c1ccc(N2Cc3ccc(N(C)C(=O)c4ccccc4)cc3C2=O)cc1 (stereo not drawn) [ALB-112169] | 1.07 |  |
| 1.04 µM | CNc1ccc2c(c1)C(=O)N(c1ccc(C(C)C(=O)OC(C)(C)C)cc1)C2 (stereo not drawn) [ALB-112170] | 1.27 |  |
|  | CC(C(=O)OC(C)(C)C)c1ccc(N2Cc3ccccc3C2=O)c(-c2cccnc2)c1 (stereo not drawn) [ALB-112172] | 1.04 |  |
|  | CC(C(=O)OC(C)(C)C)c1ccc(N2Cc3ccccc3C2=O)cc1-c1cccnc1 (stereo not drawn) [ALB-112173] | 1 |  |

| EC50 [1] | Compound | maximal fold induction [2] | maximal fold induction (SMN2-linked luciferase reporter, average maximum fold increase) |
| --- | --- | --- | --- |
|  | Cc1ccc(-c2cccc3c2C(=O)N(c2ccc(C(C)C(=O)O)cc2)C3)cc1 (stereo not drawn) [ALB-112174] | 1.18 |  |
| 16.9 µM | CC(C(=O)O)c1ccc(N2Cc3cccc(-c4ccc(Cl)cc4)c3C2=O)cc1 (stereo not drawn) [ALB-112175] | 1.37 |  |
|  | CC(C(=O)OC(C)(C)C)c1ccc(N2Cc3c(cccc3-c3ccc(Cl)c(Cl)c3)C2=O)cc1 (stereo not drawn) [ALB-112186] | 1.08 |  |
|  | CC(C(=O)OC(C)(C)C)c1ccc(N2Cc3c(cccc3-c3ccccc3)C2=O)cc1 (stereo not drawn) [ALB-112187] | 1.07 |  |
|  | Cc1ccc(-c2cccc3c2CN(c2ccc(C(C)C(=O)OC(C)(C)C)cc2)C3=O)cc1 (stereo not drawn) [ALB-112188] | 1.08 |  |
|  | CC(C(=O)OC(C)(C)C)c1ccc(N2Cc3c(cccc3-c3ccc(Cl)cc3)C2=O)cc1 (stereo not drawn) [ALB-112190] | 1.1 |  |
|  | CC(C(=O)OC(C)(C)C)c1ccc(N2Cc3c(cccc3-c3cccs3)C2=O)cc1 (stereo not drawn) [ALB-112191] | 1.12 |  |
| 5.72 µM | COC(=O)C(C)c1ccc(N2Cc3ccccc3C2)cc1 (stereo not drawn) [ALB-112192] | 1.41 |  |
|  | CC(C(=O)OC(C)(C)C)c1ccc(N2Cc3ccccc3C2=O)c(-c2cncnc2)c1 (stereo not drawn) [ALB-112194] | 1.1 |  |
|  | CC(C(=O)OC(C)(C)C)c1ccc(N2Cc3ccccc3C2=O)cc1-c1cncnc1 (stereo not drawn) [ALB-112195] | 1.06 |  |
|  | CC(C(=O)OC(C)(C)C)c1ccc(N2Cc3ccccc3C2=O)c(-c2cccs2)c1 (stereo not drawn) [ALB-112196] | 1.09 |  |
|  | CC(C(=O)OC(C)(C)C)c1ccc(N2Cc3ccccc3C2=O)cc1-c1ccccc1 (stereo not drawn) [ALB-112197] | 1.07 |  |
|  | CC(C(=O)O)c1ccc(N2Cc3ccccc3C2=O)c(-c2cccnc2)c1 (stereo not drawn) [ALB-112198] | 1.12 |  |
|  | CC(C(=O)O)c1ccc(N2Cc3ccccc3C2=O)cc1-c1cccnc1 (stereo not drawn) [ALB-112199] | 1.08 |  |
|  | CC(C(=O)O)c1ccc(N2Cc3c(cccc3-c3ccccc3)C2=O)cc1 (stereo not drawn) [ALB-112220] | 1.22 |  |
|  | Cc1ccc(-c2cccc3c2CN(c2ccc(C(C)C(=O)O)cc2)C3=O)cc1 (stereo not drawn) [ALB-112221] | 1.33 |  |
|  | COc1ccc(-c2cccc3c2CN(c2ccc(C(C)C(=O)O)cc2)C3=O)cc1 (stereo not drawn) [ALB-112222] | 1.42 |  |
| 11 µM | CC(C(=O)O)c1ccc(N2Cc3c(cccc3-c3ccc(Cl)cc3)C2=O)cc1 (stereo not drawn) [ALB-112223] | 1.31 |  |
|  | CC(C(=O)O)c1ccc(N2Cc3c(cccc3-c3cccnc3)C2=O)cc1 (stereo not drawn) [ALB-112224] | 1.3 |  |
|  | CC(C(=O)O)c1ccc(N2Cc3c(cccc3-c3cccs3)C2=O)cc1 (stereo not drawn) [ALB-112225] | 1.07 |  |
| 26.2 µM | CC(C(=O)O)c1ccc(N2Cc3c(cccc3-c3ccc(Cl)c(Cl)c3)C2=O)cc1 (stereo not drawn) [ALB-112226] | 1.44 |  |
| 0.669 µM | CC(C(=O)O)c1ccc(N2Cc3cc4ccsc4cc3C2=O)cc1 (stereo not drawn) [ALB-112228] | 1.27 |  |
|  | CC(C(=O)O)c1ccc(N2Cc3cccnc3C2=O)cc1 (stereo not drawn) [ALB-112229a] | 1.13 |  |
|  | CC(C)(C)OC(=O)Cc1ccc(N2Cc3ccccc3C2=O)cc1 [ALB-112230] | 1.1 |  |

Reference: US8110681B2, “Compounds for the treatment of spinal muscular atrophy and other uses” (The United States of America as represented by the …, priority 2006, dated 2012)
